Reference: publication PMC12439166, “Dietary flavonoids form supramolecular assemblies, alter biochemistry, and enhance cell resilience” (Frontiers in Nutrition, 2025)

System: human fibroblasts
Test: TMT proteomics of fibroblasts with and without UV exposure, differential expression and pathway analysis
Format: cell-based
Conditions: result in words
Method: Human fibroblasts were obtained from Cell Applications Inc (Cat. # 106-05a) and were maintained in Dulbecco’s Modified Eagle medium (DMEM, Corning, Cat. #10-013-CV) with 10% fetal bovine serum (Gibco, Cat. #10082147) and 1% penicillin/streptomycin (Gibco, Cat. # 15070-063) in a humidified incubator with 5% CO2 at 37 °C. For ultraviolet radiation, fibroblasts were seeded in a 96-well plate at a density of 25,000 cells/well and maintained at 37 °C for 24 h. Cells were washed once with Hanks’ balanced salt solution (HBSS, Gibco, Cat. #14025-092), then treated for 1 h with different concentrations of compounds prepared in HBSS. Vitamin C (Sigma, Cat. # A5960) served as a positive control. Treated cells were exposed to ultraviolet light (UVP cross-linker, CL1000, 254 nm UV, 8 watts) at a total dose of 20 mJ/cm^2. Following irradiation, the HBSS was replaced with culture medium containing the same concentration of compounds as before irradiation, and cells were again maintained at 37 °C. Cell viability was measured at 24 h post-irradiation using CellTiter-Glo according to the manufacturer’s instructions (Promega, Cat.# G7571). Results were expressed as relative cell viability (%) with respect to control cells (cells without ultraviolet irradiation or compound treatment).
Frozen cell pellets were dissolved for 15 min in 6M Guanidinium Chloride at room temperature to lyse cells. Then, each solution was run on a 10 kDa filter (Pall, TX) and washed with 50 μL of TEAB buffer at 3000 rpm. FASP Digestion ([56]): A stock solution of Trypsin Platinum, Mass Spec Grade (Promega) at 100 μg/mL in 50 mM TEAB, and a specific volume of stock trypsin was added to each sample vial for each set of […] using a 1:50 ratio (Trypsin:Protein). Samples were incubated for 2 h at 50 °C and shaken/mixed at 350 rpm on an Eppendorf ThermoMixer C. TMT Labeling: Samples, now peptides, were labeled using 4 μL of TMTpro Mass Tag Labels (ThermoScientific). After labeling, samples were then shaken/mixed for 45 min to ensure labels were covalently bonded to peptides. The labeling reaction was quenched for 10 min using 1 μL of 5% hydroxyalamine. After quenching, samples were pooled into one 2 mL Eppendorf tube and then dried down using an Eppendorf Vacufuge Plus. Desalting Samples: Dried samples were resuspended in 300 μL of 0.1% TFA in ultrapure HPLC-grade water and vortexed to ensure full solubility. Samples were then desalted using Pierce^TM Peptide Desalting Spin Columns (ThermoScientific). Final eluates (desalted samples) contained 600 μL of 50% HPLC-grade Acetonitrile and 50% ultrapure HPLC-grade water. Desalted samples were then transferred to HPLC vials and were again dried down. […]

SMILES: O=C1O[C@H]([C@@H](O)CO)C(O)=C1O [Vitamin C, reference compound]
- proteins/pathways up- and downregulated, exposed to UV radiation (UV-irradiated cells): primarily upregulated proteins associated with cell cycle/DNA repair-related pathways
- proteins/pathways up- and downregulated, without UV treatment (control conditions without UV): opposite effects
